Results published in patent US6403605B1, “Methods for the normalization of sexual response and amelioration of long term genital tissue degradation” (Queen's University at Kingston, priority 1998, dated 2002).

Assays:
[1] = system: patients diagnosed with male erectile dysfunction with no major organic component; test: Multi-center, double-blind, randomized, placebo-controlled study: duration of erection and time to erection; type: in vivo, human; details: for Duration of Erection, Difference in Means: all attempts; for Time to Erection, Kaplan-Meier Median: all attempts (60 minutes if no erection); for Time to Erection, Kaplan-Meier Estimation of Median Time to Erection (Treatment Means): attempts when erection occurred, first eight attempts
Protocol: A multi-center, double-blind, randomized, placebo-controlled, three-armed study was conducted on 370 patients diagnosed with male erectile dysfunction with no major organic component. For each sequence, patients received placebo in one of the treatment periods, and a dose (2 mg, 4 mg, or 6 mg) of apomorphine in the other treatment period.
During treatment periods of the study, patients and their sexual partners were instructed to attempt intercourse a minimum of twice weekly. Each time the study drug was taken, a questionnaire was completed by the patient and by the partner and mailed to the study sponsor. The questionnaire recorded the date and time the study drug was taken, an evaluation of the erection, whether or not sexual intercourse had occurred, and satisfaction associated with each attempt. The patient also completed a diary which recorded the latency and duration of erections associated with the use of the study drug and antiemetic and concomitant medication usage and any adverse effects. If an erection occurred after administration to the patient of the study drug, the duration of erection and time-to-erection were recorded in the patient diary.
The data in Table 2 also indicate a dose-dependent, statistically significant difference of duration of erection, with a difference of almost 5 minutes between patients taking the 6 mg dose and those receiving placebo.
In those cases where no erection was achieved, a value of 60 minutes time-to-erection was used in the statistical analysis. The data in Table 3 show differences in latency periods between patients receiving apomorphine and those receiving placebo, but the differences probably reflect the inclusion in the data of 60 minute values for those cases in which no erection was achieved.

female rats = test: Studies with female rats: sexual arousal behaviors; type: in vivo, rat; details: female rats treated with combination of apomorphine and low doses of testosterone
Excerpt: When co-administration of an androgen is utilized in this method of the invention, the androgen is given is doses sufficient to produce plasma concentrations of about 1 nmol/L to 200 nmol/L.

[2] = Pharmacokinetic evaluation of apomorphine (FIG. 1, mean plasma concentrations after sub-cutaneous and sublingual doses)

fraction of maximum blood serum levels reached ([2]; 12 minutes following buccal administration): one-fifth to one-fourth
plasma apomorphine levels sufficient to cause a therapeutic effect ([2]; interpolation of plasma curves for 2, 4, 6 mg up to about 20 minutes after administration): less than 0.25 ng/mL
time to maximum plasma concentrations ([2]; sub-lingual administration (formulation used in Tables 1-4)): about 60 minutes
SMILES: CN1CCc2cccc3c2[C@H]1Cc1ccc(O)c(O)c1-3 [Apomorphine, (R)-5,6,6a,7-tetrahydro-6-methyl-(4H)-dibenzo[de,g]quinoline-10,11-diol]
Duration of Erection, Difference in Means ([1]; 2 mg apomorphine vs placebo): 1.936 min
Duration of Erection, Difference in Mean ([1]; 2 mg apomorphine vs placebo, only attempts where erection was achieved): 1.811 min
Duration of Erection, Mean ([1]; 2 mg apomorphine, sublingual, all attempts (zero minutes if no erection)): 5.020 min
Time to Erection, Kaplan-Meier Median ([1]; 2 mg apomorphine): 42.17 min
Time to Erection, Kaplan-Meier Estimation of Median Time to Erection (Treatment Means) ([1]; 2 mg apomorphine): 11.33 min
Duration of Erection, Mean ([1]; 2 mg apomorphine, only attempts where erection was achieved): 10.82 min
Duration of Erection, Difference in Means ([1]; 4 mg apomorphine vs placebo): 3.578 min
Duration of Erection, Difference in Mean ([1]; 4 mg apomorphine vs placebo, only attempts where erection was achieved): 3.458 min
Duration of Erection, Mean ([1]; 4 mg apomorphine, sublingual, all attempts (zero minutes if no erection)): 6.903 min
Time to Erection, Kaplan-Meier Median ([1]; 4 mg apomorphine): 36.00 min
Time to Erection, Kaplan-Meier Estimation of Median Time to Erection (Treatment Means) ([1]; 4 mg apomorphine): 12.61 min
Duration of Erection, Mean ([1]; 4 mg apomorphine, only attempts where erection was achieved): 12.49 min
Duration of Erection, Difference in Means ([1]; 6 mg apomorphine vs placebo): 5.138 min
Duration of Erection, Difference in Mean ([1]; 6 mg apomorphine vs placebo, only attempts where erection was achieved): 4.925 min
Duration of Erection, Difference in Mean ([1]; 6 mg apomorphine vs placebo, only attempts where erection was achieved, listed as apomorphine): ~5 min
Duration of Erection, Mean ([1]; 6 mg apomorphine, sublingual, all attempts (zero minutes if no erection)): 8.393 min
Time to Erection, Kaplan-Meier Median ([1]; 6 mg apomorphine): 31.33 min
Time to Erection, Kaplan-Meier Estimation of Median Time to Erection (Treatment Means) ([1]; 6 mg apomorphine): 12.82 min
Duration of Erection, Mean ([1]; 6 mg apomorphine, only attempts where erection was achieved): 13.96 min
difference in median time-to-erection between drug and placebo ([1]; attempts successful in achieving an erection): no statistically significant difference
effect on duration of erection compared to placebo ([1]; doses tested (2, 4, 6 mg)): significant increase in the duration of erection
behaviors associated with sexual arousal (female rats): exhibited lordosis, genital grooming and other behaviors typically associated with sexual arousal
